Laboratory results published in the kinase profiling compilation of Christmann-Franck et al. (2016).

How the values were obtained:
Assay in all cases: radiometric filter-binding kinase assay, Kinase HotSpot
Conditions in all cases: compound 0.5 µM; ATP 10 µM
ACVRL1 (human) = ACVRL1 (human) (UniProt P37023)
AKT1 (human) = AKT1 (human) (UniProt P31749)
BLK (human) = BLK (human) (UniProt P51451)
BRSK1 (human) = BRSK1 (human) (UniProt Q8TDC3)
BRSK2 (human) = BRSK2 (human) (UniProt Q8IWQ3)
CAMKK2 (human) = CAMKK2 (human) (UniProt Q96RR4)
CDC42BPA (human) = CDC42BPA (human) (UniProt Q5VT25)
CDK2 CCNA2 (human) = CDK2 CCNA2 (human) (UniProt P24941+P20248)
CDK5 CDK5R1 p35 (human) = CDK5 CDK5R1 p35 (human) (UniProt Q00535+Q15078)
CLK2 (human) = CLK2 (human) (UniProt P49760)
CSF1R (human) = CSF1R (human) (UniProt P07333)
DCLK2 (human) = DCLK2 (human) (UniProt Q8N568)
DSTYK (human) = DSTYK (human) (UniProt Q6XUX3)
EPHA1 (human) = EPHA1 (human) (UniProt P21709)
EPHA6 (human) = EPHA6 (human) (UniProt Q9UF33)
EPHB2 (human) = EPHB2 (human) (UniProt P29323)
EPHB3 (human) = EPHB3 (human) (UniProt P54753)
FGFR3 (human) = FGFR3 (human) (UniProt P22607)
FRK (human) = FRK (human) (UniProt P42685)
GSK3A (human) = GSK3A (human) (UniProt P49840)
INSRR (human) = INSRR (human) (UniProt P14616)
LRRK2 (human) = LRRK2 (human) (UniProt Q5S007)
LTK (human) = LTK (human) (UniProt P29376)
MAP2K1 (human) = MAP2K1 (human) (UniProt Q02750)
MAP2K2 (human) = MAP2K2 (human) (UniProt P36507)
MAP3K10 (human) = MAP3K10 (human) (UniProt Q02779)
MAP4K2 (human) = MAP4K2 (human) (UniProt Q12851)
MAPK13 (human) = MAPK13 (human) (UniProt O15264)
MAPKAPK3 (human) = MAPKAPK3 (human) (UniProt Q16644)
MARK3 (human) = MARK3 (human) (UniProt P27448)
MYLK2 (human) = MYLK2 (human) (UniProt Q9H1R3)
NEK9 (human) = NEK9 (human) (UniProt Q8TD19)
PAK6 (human) = PAK6 (human) (UniProt Q9NQU5)
PASK (human) = PASK (human) (UniProt Q96RG2)
PHKG1 (human) = PHKG1 (human) (UniProt Q16816)
PIM2 (human) = PIM2 (human) (UniProt Q9P1W9)
PRKACA (human) = PRKACA (human) (UniProt P17612)
RPS6KA1 KD1 KD2 (human) = RPS6KA1 KD1 KD2 (human) (UniProt Q15418)
RPS6KA3 KD1 KD2 (human) = RPS6KA3 KD1 KD2 (human) (UniProt P51812)
STK16 (human) = STK16 (human) (UniProt O75716)
ULK1 (human) = ULK1 (human) (UniProt O75385)
ULK2 (human) = ULK2 (human) (UniProt Q8IYT8)
ULK2 (human), sequence (Q8IYT8 whole entry, looked up): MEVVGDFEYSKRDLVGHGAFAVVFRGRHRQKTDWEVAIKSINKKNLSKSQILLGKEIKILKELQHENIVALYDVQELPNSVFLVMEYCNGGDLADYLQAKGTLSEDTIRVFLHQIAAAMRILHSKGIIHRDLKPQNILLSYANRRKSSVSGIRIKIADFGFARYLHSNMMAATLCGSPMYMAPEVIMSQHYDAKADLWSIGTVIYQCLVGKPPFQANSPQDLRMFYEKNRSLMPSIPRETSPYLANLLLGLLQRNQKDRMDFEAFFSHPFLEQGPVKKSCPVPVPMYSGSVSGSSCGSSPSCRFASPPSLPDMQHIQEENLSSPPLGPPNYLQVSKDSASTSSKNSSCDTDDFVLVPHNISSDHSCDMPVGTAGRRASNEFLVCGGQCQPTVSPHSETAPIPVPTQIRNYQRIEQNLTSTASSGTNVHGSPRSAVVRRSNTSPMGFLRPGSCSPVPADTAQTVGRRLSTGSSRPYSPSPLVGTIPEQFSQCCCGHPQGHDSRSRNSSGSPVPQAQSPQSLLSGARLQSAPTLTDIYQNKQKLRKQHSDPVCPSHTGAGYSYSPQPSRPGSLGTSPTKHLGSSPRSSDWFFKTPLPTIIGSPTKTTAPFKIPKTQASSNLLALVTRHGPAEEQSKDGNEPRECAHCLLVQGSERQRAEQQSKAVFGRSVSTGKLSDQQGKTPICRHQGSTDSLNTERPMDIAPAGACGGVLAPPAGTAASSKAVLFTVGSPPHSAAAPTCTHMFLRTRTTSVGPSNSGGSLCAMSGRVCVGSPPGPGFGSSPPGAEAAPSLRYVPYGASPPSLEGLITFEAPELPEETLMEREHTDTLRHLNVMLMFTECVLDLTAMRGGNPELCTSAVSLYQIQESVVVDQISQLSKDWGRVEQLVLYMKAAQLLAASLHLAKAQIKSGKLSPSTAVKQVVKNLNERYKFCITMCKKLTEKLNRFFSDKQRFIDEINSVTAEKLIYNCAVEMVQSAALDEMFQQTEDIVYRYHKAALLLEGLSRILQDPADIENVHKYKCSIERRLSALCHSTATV

BLK (human), sequence (P51451 whole entry, looked up): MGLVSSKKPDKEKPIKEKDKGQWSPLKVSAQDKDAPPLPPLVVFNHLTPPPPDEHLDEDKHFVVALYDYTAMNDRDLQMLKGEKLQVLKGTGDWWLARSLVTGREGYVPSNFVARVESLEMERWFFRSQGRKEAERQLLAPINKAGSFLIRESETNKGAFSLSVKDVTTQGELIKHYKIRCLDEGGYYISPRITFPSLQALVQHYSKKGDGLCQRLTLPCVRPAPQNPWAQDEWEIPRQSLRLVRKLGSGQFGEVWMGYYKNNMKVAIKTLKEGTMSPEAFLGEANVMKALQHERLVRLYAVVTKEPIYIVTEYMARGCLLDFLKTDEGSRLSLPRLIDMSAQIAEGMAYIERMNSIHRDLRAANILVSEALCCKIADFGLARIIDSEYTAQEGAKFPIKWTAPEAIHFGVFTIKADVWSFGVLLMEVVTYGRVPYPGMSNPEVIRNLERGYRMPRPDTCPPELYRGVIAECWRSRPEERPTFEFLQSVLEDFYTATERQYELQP
BRSK2 (human), sequence (Q8IWQ3 whole entry, looked up): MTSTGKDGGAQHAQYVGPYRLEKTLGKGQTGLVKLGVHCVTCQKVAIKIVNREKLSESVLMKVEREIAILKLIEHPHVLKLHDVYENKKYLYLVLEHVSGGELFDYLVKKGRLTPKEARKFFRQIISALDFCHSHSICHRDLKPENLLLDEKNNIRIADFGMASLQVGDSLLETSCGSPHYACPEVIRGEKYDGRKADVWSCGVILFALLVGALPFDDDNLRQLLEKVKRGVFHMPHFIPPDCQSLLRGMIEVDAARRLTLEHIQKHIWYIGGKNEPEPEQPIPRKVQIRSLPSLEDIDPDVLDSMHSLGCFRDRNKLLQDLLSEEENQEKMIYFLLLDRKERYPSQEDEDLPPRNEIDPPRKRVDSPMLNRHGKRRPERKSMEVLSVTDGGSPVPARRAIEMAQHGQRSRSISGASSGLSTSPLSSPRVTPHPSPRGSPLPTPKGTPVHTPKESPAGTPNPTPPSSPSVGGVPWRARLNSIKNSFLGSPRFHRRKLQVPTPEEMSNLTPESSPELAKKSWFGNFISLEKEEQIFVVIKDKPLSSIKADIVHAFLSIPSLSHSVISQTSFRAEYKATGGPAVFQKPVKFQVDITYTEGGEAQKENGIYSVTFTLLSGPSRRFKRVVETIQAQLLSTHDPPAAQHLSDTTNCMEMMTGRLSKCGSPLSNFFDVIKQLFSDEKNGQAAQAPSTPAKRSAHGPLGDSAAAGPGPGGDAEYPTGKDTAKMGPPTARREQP
MYLK2 (human), sequence (Q9H1R3 whole entry, looked up): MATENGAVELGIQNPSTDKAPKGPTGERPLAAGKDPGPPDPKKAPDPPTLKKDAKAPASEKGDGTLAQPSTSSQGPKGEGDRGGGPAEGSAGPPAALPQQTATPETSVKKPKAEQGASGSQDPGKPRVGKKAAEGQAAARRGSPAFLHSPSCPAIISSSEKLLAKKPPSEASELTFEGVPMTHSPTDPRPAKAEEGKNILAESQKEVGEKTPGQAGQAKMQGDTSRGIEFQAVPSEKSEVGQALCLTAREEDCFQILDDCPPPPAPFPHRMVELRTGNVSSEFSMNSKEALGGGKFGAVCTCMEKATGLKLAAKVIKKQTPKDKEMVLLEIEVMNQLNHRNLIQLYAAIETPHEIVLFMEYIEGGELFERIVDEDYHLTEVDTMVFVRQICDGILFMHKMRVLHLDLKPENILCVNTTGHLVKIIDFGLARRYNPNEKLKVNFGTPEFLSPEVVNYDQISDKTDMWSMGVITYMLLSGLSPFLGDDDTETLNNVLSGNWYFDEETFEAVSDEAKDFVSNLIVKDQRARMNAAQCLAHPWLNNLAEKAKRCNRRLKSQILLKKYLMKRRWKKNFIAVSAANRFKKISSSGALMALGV
MAP3K10 (human), sequence (Q02779 whole entry, looked up): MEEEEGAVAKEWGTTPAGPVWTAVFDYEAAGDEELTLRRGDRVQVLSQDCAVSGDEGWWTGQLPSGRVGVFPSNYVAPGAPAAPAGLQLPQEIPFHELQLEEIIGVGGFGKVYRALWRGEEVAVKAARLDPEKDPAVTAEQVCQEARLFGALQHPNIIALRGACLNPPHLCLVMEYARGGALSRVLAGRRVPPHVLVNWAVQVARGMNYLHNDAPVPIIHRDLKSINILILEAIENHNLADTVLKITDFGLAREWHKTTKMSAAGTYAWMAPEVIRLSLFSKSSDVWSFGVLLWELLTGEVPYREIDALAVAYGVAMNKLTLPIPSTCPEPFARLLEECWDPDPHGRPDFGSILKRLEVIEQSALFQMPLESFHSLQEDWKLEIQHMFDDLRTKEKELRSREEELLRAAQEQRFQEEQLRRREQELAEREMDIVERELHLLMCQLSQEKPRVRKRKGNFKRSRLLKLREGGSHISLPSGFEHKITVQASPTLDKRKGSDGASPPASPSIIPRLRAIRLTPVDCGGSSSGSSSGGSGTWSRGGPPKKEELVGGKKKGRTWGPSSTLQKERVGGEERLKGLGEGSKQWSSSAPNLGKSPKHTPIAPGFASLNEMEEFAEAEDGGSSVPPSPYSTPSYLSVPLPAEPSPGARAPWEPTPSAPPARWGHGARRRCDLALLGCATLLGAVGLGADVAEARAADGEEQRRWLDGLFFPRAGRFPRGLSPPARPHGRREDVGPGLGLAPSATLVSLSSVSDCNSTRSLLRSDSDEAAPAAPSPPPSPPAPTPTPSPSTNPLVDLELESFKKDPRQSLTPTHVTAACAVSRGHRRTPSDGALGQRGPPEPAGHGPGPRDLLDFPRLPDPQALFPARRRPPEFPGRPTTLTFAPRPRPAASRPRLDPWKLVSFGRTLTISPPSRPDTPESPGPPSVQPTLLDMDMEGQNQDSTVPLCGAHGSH
MAPKAPK3 (human), sequence (Q16644 whole entry, looked up): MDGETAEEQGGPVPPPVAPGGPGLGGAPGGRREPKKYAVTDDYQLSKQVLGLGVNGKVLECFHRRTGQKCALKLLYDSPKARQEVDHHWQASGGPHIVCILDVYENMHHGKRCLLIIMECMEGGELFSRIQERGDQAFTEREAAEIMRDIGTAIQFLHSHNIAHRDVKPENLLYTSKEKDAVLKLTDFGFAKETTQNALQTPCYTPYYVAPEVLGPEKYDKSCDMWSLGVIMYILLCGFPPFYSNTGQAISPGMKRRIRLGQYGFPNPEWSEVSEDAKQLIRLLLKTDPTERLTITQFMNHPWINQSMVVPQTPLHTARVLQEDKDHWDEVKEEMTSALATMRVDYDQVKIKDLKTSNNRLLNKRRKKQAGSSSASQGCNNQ
FGFR3 (human), sequence (P22607 whole entry, looked up): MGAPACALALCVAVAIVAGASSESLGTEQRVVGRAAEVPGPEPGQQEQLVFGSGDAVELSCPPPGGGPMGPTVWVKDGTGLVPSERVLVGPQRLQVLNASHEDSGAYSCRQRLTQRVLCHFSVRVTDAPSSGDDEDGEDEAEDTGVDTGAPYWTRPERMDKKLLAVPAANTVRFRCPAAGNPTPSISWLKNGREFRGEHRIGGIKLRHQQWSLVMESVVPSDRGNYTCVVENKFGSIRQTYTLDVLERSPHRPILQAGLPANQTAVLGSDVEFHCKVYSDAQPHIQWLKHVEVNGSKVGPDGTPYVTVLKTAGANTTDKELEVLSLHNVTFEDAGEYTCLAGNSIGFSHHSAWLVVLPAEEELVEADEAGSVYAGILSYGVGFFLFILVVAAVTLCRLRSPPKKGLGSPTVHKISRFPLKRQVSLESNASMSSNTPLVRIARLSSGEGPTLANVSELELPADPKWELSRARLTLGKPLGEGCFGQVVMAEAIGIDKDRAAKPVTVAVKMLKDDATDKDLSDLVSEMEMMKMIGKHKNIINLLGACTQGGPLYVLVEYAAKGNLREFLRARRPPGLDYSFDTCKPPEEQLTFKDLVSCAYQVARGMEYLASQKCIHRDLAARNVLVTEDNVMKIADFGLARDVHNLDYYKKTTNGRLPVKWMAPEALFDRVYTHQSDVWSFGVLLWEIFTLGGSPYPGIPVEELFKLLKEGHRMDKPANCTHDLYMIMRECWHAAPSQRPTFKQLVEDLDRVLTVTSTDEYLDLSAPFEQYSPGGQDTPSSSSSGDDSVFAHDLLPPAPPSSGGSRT

O=C1NC(=O)/C(=C/c2ccc3c(c2)OC(F)(F)O3)S1
residual activity (ACVRL1 (human)): 97.1%
residual activity (AKT1 (human)): 98.2%
residual activity (BLK (human)): 99.2%
residual activity (BRSK1 (human)): 88%
residual activity (BRSK2 (human)): 90.9%
residual activity (CAMKK2 (human)): 82.9%
residual activity (CDC42BPA (human)): 98.5%
residual activity (CDK2 CCNA2 (human)): 107%
residual activity (CDK5 CDK5R1 p35 (human)): 103%
residual activity (CLK2 (human)): 96.6%
residual activity (CSF1R (human)): 106%
residual activity (DCLK2 (human)): 99.7%
residual activity (DSTYK (human)): 89.3%
residual activity (EPHA1 (human)): 90.2%
residual activity (EPHA6 (human)): 83.1%
residual activity (EPHB2 (human)): 95.8%
residual activity (EPHB3 (human)): 93.1%
residual activity (FGFR3 (human)): 96.4%
residual activity (FRK (human)): 93.4%
residual activity (GSK3A (human)): 88.1%
residual activity (INSRR (human)): 110%
residual activity (LRRK2 (human)): 103%
residual activity (LTK (human)): 95.5%
residual activity (MAP2K1 (human)): 95.6%
residual activity (MAP2K2 (human)): 110%
residual activity (MAP3K10 (human)): 91.2%
residual activity (MAP4K2 (human)): 90.7%
residual activity (MAPK13 (human)): 101%
residual activity (MAPKAPK3 (human)): 94.2%
residual activity (MARK3 (human)): 92.3%
residual activity (MYLK2 (human)): 96.6%
residual activity (NEK9 (human)): 109%
residual activity (PAK6 (human)): 103%
residual activity (PASK (human)): 78.2%
residual activity (PHKG1 (human)): 94.2%
residual activity (PIM2 (human)): 91.9%
residual activity (PRKACA (human)): 101%
residual activity (RPS6KA1 KD1 KD2 (human)): 71.1%
residual activity (RPS6KA3 KD1 KD2 (human)): 103%
residual activity (STK16 (human)): 91%
residual activity (ULK1 (human)): 100%
residual activity (ULK2 (human)): 100%

O=C1Nc2ccc(Cl)cc2/C1=C/c1cc(Cl)c(O)c(Cl)c1
residual activity (ACVRL1 (human)): 96.4%
residual activity (AKT1 (human)): 97.9%
residual activity (BLK (human)): 102%
residual activity (BRSK1 (human)): 81.3%
residual activity (BRSK2 (human)): 77.2%
residual activity (CAMKK2 (human)): 51.5%
residual activity (CDC42BPA (human)): 96.1%
residual activity (CDK2 CCNA2 (human)): 99.5%
residual activity (CDK5 CDK5R1 p35 (human)): 94.5%
residual activity (CLK2 (human)): 95.5%
residual activity (CSF1R (human)): 77.9%
residual activity (DCLK2 (human)): 98%
residual activity (DSTYK (human)): 89.6%
residual activity (EPHA1 (human)): 88.9%
residual activity (EPHA6 (human)): 72.8%
residual activity (EPHB2 (human)): 90.9%
residual activity (EPHB3 (human)): 91%
residual activity (FGFR3 (human)): 94%
residual activity (FRK (human)): 70.3%
residual activity (GSK3A (human)): 76.1%
residual activity (INSRR (human)): 100%
residual activity (LRRK2 (human)): 11%
residual activity (LTK (human)): 36.9%
residual activity (MAP2K1 (human)): 96.8%
residual activity (MAP2K2 (human)): 82%
residual activity (MAP3K10 (human)): 86.8%
residual activity (MAP4K2 (human)): 62.6%
residual activity (MAPK13 (human)): 97.8%
residual activity (MAPKAPK3 (human)): 88.4%
residual activity (MARK3 (human)): 81.1%
residual activity (MYLK2 (human)): 71.5%
residual activity (NEK9 (human)): 103%
residual activity (PAK6 (human)): 97%
residual activity (PASK (human)): 70%
residual activity (PHKG1 (human)): 86.4%
residual activity (PIM2 (human)): 48.6%
residual activity (PRKACA (human)): 101%
residual activity (RPS6KA1 KD1 KD2 (human)): 48.4%
residual activity (RPS6KA3 KD1 KD2 (human)): 96%
residual activity (STK16 (human)): 90.2%
residual activity (ULK1 (human)): 95%
residual activity (ULK2 (human)): 101%

CCCC(=O)Oc1ccc2[nH]c(C(=O)c3cc4ccccc4[nH]3)cc2c1
residual activity (ACVRL1 (human)): 90.9%
residual activity (AKT1 (human)): 102%
residual activity (BLK (human)): 102%
residual activity (BRSK1 (human)): 99.5%
residual activity (BRSK2 (human)): 98.8%
residual activity (CAMKK2 (human)): 84.6%
residual activity (CDC42BPA (human)): 98%
residual activity (CDK2 CCNA2 (human)): 88.9%
residual activity (CDK5 CDK5R1 p35 (human)): 97.5%
residual activity (CLK2 (human)): 94.3%
residual activity (CSF1R (human)): 103%
residual activity (DCLK2 (human)): 89.2%
residual activity (DSTYK (human)): 94.9%
residual activity (EPHA1 (human)): 88.8%
residual activity (EPHA6 (human)): 88%
residual activity (EPHB2 (human)): 98.4%
residual activity (EPHB3 (human)): 94.2%
residual activity (FGFR3 (human)): 95.2%
residual activity (FRK (human)): 98.2%
residual activity (GSK3A (human)): 94.1%
residual activity (INSRR (human)): 97.9%
residual activity (LRRK2 (human)): 101%
residual activity (LTK (human)): 87.5%
residual activity (MAP2K1 (human)): 99.9%
residual activity (MAP2K2 (human)): 98.7%
residual activity (MAP3K10 (human)): 87.7%
residual activity (MAP4K2 (human)): 95.3%
residual activity (MAPK13 (human)): 103%
residual activity (MAPKAPK3 (human)): 94.3%
residual activity (MARK3 (human)): 92.1%
residual activity (MYLK2 (human)): 98.2%
residual activity (NEK9 (human)): 110%
residual activity (PAK6 (human)): 94.5%
residual activity (PASK (human)): 88.7%
residual activity (PHKG1 (human)): 93.7%
residual activity (PIM2 (human)): 101%
residual activity (PRKACA (human)): 96.6%
residual activity (RPS6KA1 KD1 KD2 (human)): 91.3%
residual activity (RPS6KA3 KD1 KD2 (human)): 97.5%
residual activity (STK16 (human)): 100%
residual activity (ULK1 (human)): 103%
residual activity (ULK2 (human)): 98.3%
